# Laboratory results reported in patent US8471005B2 (Cephalon, Inc., priority 2008, dated 2013).
# Where two headings read alike, the source gives them in different places.
# How the values were obtained:
# JAK2 = target: T1, JAK2 (Homo sapiens, UniProt O60674); test: Recombinant Human JAK2 Kinase Assay (TRF); assay type: biochemical; settings: read-out: JAK2 Potency
# T1 construct: host or cells: baculovirus expression system
# Method in brief: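 Baculovirus-expressed JAK2 (15 ng/ml) phosphorylated a biotinylated 15-mer peptide captured on Neutravidin, in 20 mM HEPES pH 7.2, 0.2 μM ATP, 1 mM MnCl2, 0.1% BSA, 2.5% DMSO final, 20 min at room temperature. Phosphoproduct detected by time-resolved fluorescence with Eu-N1-labelled PY100 antibody.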
# ALK = target: T2, ALK (Homo sapiens, UniProt Q9UM73); test: ALK Kinase Assay (ELISA/TRF, PLC-γ substrate); assay type: biochemical; settings: read-out: ALK Potency
# T2 construct: host or cells: baculovirus expression system
# T2 sequence (Q9UM73 19-1620): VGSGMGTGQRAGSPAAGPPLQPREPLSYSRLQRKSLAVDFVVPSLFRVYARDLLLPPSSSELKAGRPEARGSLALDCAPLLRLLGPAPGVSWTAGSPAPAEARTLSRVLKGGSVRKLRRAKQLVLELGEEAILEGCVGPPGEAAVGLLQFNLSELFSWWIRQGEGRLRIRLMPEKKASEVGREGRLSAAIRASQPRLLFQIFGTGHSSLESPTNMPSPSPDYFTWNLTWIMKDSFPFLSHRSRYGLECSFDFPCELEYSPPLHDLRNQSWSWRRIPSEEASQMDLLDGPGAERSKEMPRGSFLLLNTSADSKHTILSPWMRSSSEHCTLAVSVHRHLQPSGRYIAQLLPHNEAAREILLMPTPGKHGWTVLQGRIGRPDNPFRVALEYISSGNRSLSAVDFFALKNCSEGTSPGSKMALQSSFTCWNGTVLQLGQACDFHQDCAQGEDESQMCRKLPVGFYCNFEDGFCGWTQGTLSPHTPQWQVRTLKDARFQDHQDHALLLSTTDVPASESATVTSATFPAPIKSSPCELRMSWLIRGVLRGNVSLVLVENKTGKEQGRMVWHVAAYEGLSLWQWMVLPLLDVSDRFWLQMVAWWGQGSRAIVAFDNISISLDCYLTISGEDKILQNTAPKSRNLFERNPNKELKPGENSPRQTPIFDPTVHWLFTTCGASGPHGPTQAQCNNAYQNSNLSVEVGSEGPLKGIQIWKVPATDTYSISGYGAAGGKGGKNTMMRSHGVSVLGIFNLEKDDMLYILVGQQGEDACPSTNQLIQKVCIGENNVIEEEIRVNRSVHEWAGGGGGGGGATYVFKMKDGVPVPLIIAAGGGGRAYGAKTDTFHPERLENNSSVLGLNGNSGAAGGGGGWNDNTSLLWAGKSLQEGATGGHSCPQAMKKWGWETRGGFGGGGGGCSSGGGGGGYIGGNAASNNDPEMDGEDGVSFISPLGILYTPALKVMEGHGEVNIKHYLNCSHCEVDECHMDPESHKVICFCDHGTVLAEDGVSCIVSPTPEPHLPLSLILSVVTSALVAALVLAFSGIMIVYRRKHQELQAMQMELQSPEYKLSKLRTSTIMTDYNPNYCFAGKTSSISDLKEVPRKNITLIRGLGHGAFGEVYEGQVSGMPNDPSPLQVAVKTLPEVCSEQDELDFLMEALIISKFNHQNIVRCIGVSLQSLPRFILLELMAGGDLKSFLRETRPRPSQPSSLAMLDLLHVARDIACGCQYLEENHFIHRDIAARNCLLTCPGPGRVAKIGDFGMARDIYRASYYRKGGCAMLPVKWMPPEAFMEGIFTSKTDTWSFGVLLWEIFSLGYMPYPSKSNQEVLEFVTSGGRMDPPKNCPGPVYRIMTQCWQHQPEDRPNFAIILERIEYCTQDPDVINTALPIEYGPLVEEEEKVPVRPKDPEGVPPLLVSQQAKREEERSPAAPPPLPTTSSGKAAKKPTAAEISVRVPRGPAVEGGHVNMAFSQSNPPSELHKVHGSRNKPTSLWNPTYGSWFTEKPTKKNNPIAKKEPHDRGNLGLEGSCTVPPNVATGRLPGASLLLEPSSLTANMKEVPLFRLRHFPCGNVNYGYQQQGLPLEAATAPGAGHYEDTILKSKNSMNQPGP
# Method in brief: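 PLC-γ substrate coated at 10 μg/mL in TBS; reaction started with 30 ng/ml ALK, run 15 min at 37° C. Phosphoproduct detected by TRF with Eu-N1-labeled PT66 anti-phosphotyrosine antibody. IC50 from sigmoidal variable-slope fit of percent inhibition versus log concentration.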
# [1] = JAK2 kinase inhibition, 0.2 μM ATP
# [2] = ALK kinase inhibition, 1 μM ATP
# T1 sequence (O60674 whole entry): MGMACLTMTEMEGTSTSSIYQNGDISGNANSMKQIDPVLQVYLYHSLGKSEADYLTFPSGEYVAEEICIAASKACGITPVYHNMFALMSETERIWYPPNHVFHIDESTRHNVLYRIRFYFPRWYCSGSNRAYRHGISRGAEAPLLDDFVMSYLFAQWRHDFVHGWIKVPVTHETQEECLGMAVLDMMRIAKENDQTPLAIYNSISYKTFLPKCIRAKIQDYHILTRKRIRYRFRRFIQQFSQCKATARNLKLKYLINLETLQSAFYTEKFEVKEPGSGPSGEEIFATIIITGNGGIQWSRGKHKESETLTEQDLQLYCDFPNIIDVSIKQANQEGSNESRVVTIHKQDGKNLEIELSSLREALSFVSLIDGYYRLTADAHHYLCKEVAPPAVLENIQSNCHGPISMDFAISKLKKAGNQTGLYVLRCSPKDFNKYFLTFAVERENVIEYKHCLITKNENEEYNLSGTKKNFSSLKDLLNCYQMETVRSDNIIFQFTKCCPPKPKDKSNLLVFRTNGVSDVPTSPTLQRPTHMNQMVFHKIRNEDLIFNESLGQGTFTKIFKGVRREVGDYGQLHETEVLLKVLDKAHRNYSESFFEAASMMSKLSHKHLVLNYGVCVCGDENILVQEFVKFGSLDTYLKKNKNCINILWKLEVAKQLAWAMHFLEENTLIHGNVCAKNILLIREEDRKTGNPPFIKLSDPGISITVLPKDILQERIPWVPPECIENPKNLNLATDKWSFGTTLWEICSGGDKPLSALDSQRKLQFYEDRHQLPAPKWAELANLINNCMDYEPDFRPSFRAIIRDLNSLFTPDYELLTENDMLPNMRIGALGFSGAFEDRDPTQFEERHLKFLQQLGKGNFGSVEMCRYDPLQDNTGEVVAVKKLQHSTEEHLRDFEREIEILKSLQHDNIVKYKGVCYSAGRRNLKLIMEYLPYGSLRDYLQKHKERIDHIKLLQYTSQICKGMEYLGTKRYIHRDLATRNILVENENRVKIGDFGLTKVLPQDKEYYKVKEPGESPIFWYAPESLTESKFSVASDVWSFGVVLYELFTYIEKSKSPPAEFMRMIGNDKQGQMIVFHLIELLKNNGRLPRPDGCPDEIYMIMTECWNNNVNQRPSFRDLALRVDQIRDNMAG
IC50 (JAK2; [1]),IC50 (ALK; [2]),IC50 (JAK2; JAK2 Kinase Inhibition),IC50 (ALK; ALK Kinase Inhibition),Compound
100 to 1000 nM,< 100 nM,–,–,"COc1cc(N2CCC(N3CCCOCC3)CC2)ccc1Nc1ncc2ccc(-c3ccccc3N(C)S(C)(=O)=O)n2n1 [Example 783, N-(2-{2-[2-Methoxy-4-(4-[1,4]oxazepan-4-yl-piperidin-1-yl)-henylamino]-pyrrolo[2,1-f][1,2,4]triazin-7-yl}-phenyl)-N-methyl-methanesulfonamide]"
100 to 1000 nM,< 100 nM,–,–,"COc1cc(C2CCN(CC(N)=O)CC2)ccc1Nc1ncc2ccc(-c3cccc(S(=O)(=O)NC(C)(C)C)c3)n2n1 [Example 693, 2-(4-{4-[7-(3-tert-Butylsulfamoylphenyl)pyrrolo[2,1-f][1,2,4]triazin-2-ylamino]-3-methoxyphenyl)piperidin-1-yl)-acetamide]"
< 100 nM,< 100 nM,–,–,"COc1cc([C@@H]2CCN(CCF)C[C@@H]2O)ccc1Nc1ncc2ccc(-c3ccccc3OC)n2n1 (racemic) [Example 838, (±)-(3R,4S)-1-(2-Fluoro-ethyl)-4-{3-methoxy-4-[7-(2-methoxy-phenyl)-pyrrolo[2,1-f][1,2,4]triazin-2-ylamino]-phenyl}-piperidin-3-ol]"
–,–,100 to 1000 nM,< 100 nM,"COc1cc(N2CCN(C)CC2)ccc1Nc1ncc2ccc(-c3ccccc3N(C)S(C)(=O)=O)n2n1 [Example 1457, N-(2-{2-[2-Methoxy-4-(4-methyl-piperazin-1-yl)-phenylamino]-pyrrolo[2,1-f][1,2,4]triazin-7-yl}-phenyl)-N-methyl-methanesulfonamide]"
100 to 1000 nM,< 100 nM,–,–,"COc1cc(C2CCN(CC(N)=O)CC2)ccc1Nc1ncc2ccc(-c3ccccc3N(C)S(C)(=O)=O)n2n1 [Example 812, 2-[4-(4-{7-[2-(Methanesulfonyl-methyl-amino)-phenyl]-pyrrolo[2,1-f][1,2,4]triazin-2-ylamino}-3-methoxy-phenyl)-piperidin-1-yl]-acetamide]"
–,–,< 100 nM,100 to 1000 nM,"CN1CCN(c2ccc(Nc3ncc4ccc(-c5ccccc5OCC(=O)N(C)C)n4n3)cc2)CC1 [Example 1403, N,N-Dimethyl-2-(2-{2-[4-(4-methyl-piperazin-1-yl)-phenylamino]-pyrrolo[2,1-f][1,2,4]triazin-7-yl}-phenoxy)-acetamide]"
100 to 1000 nM,< 100 nM,–,–,"COc1cc(N2CCCN(C3CCN(C)CC3)CC2)ccc1Nc1ncc2ccc(-c3ccccc3N(C)S(C)(=O)=O)n2n1 [Example 790, N-[2-(2-{2-Methoxy-4-[4-(1-methyl-piperidin-4-yl)-[1,4]diazepan-1-yl]-phenylamino}-pyrrolo[2,1-f][1,2,4]triazin-7-yl)-phenyl]-N-methyl-methanesulfonamide]"
< 100 nM,100 to 1000 nM,–,–,"COc1ccccc1-c1ccc2cnc(Nc3ccc4ncn(CCN5CCOCC5)c4c3)nn12 [Example 1349, [7-(2-Methoxy-phenyl)-pyrrolo[2,1-f][1,2,4]triazin-2-yl]-[3-(2-morpholin-4-yl-ethyl)-3H-benzimidazol-5-yl]-amine]"
< 100 nM,1000 to 10000 nM,–,–,"COc1ccccc1-c1ccc2cnc(Nc3cccc(S(=O)(=O)N(C)C)c3)nn12 [Example 594, 3-[7-(2-Methoxy-phenyl)-pyrrolo[2,1-f][1,2,4]triazin-2-ylamino]-N,N-dimethyl-benzenesulfonamide]"
1000 to 10000 nM,> 10000 nM,–,–,"CN(c1ccccc1-c1ccc2cnc(OCCN3CCN(c4ccc(N)cc4)CC3)nn12)S(C)(=O)=O [Example 1172, N-[2-(2-{2-[4-(4-Amino-phenyl)-piperazin-1-yl]-ethoxy}-pyrrolo[2,1-f][1,2,4]triazin-7-yl)-phenyl]-N-methyl-methanesulfonamide]"
–,–,< 100 nM,100 to 1000 nM,"CN(c1ccccc1-c1ccc2cnc(Nc3ccc4nc(CN5CCN(CCO)CC5)[nH]c4c3)nn12)S(C)(=O)=O [Example 1521, N-[2-(2-{2-[4-(2-Hydroxy-ethyl)-piperazin-1-ylmethyl]-3H-benzimidazol-5-ylamino}-pyrrolo[2,1-f][1,2,4]triazin-7-yl)-phenyl]-N-methyl-methanesulfonamide]"
–,–,< 100 nM,100 to 1000 nM,"CN1CCN(Cc2nc3ccc(Nc4ncc5ccc(-c6cccc(S(=O)(=O)NC(C)(C)C)c6)n5n4)cc3[nH]2)CC1 [Example 1524, N-tert-Butyl-3-{2-[2-(4-methyl-piperazin-1-ylmethyl)-3H-benzimidazol-5-ylamino]-pyrrolo[2,1-f][1,2,4]triazin-7-yl}-benzenesulfonamide]"
100 to 1000 nM,< 100 nM,–,–,"COc1cc(CCN2CCN(C)CC2)ccc1Nc1ncc2ccc(-c3ccccc3N(C)S(C)(=O)=O)n2n1 [Example 491, N-[2-(2-{2-Methoxy-4-[2-(4-methyl-piperazin-1-yl)-ethyl]-phenylamino}-pyrrolo[2,1-f][1,2,4]triazin-7-yl)-phenyl]-N-methyl-methanesulfonamide]"
–,–,100 to 1000 nM,100 to 1000 nM,"Cc1cc2[nH]c(=O)oc2cc1Nc1ncc2ccc(-c3ccccc3N(C)S(C)(=O)=O)n2n1 [Example 1492, N-Methyl-N-{2-[2-(5-methyl-2-oxo-2,3-dihydro-benzoxazol-6-ylamino)-pyrrolo[2,1-f][1,2,4]triazin-7-yl]-phenyl}-methanesulfonamide]"
100 to 1000 nM,1000 to 10000 nM,–,–,"CN(c1ccccc1-c1ccc2cnc(OC3CCN(c4ccc(N)cc4)CC3)nn12)S(C)(=O)=O [Example 634, N-(2-{2-[1-(4-Amino-phenyl)-piperidin-4-yloxy]-pyrrolo[2,1-f][1,2,4]triazin-7-yl}-phenyl)-N-methyl-methanesulfonamide]"

# Continued, compound first:
Compound,IC50 (JAK2; [1]),IC50 (ALK; [2]),IC50 (JAK2; JAK2 Kinase Inhibition),IC50 (ALK; ALK Kinase Inhibition)
"O=S(=O)(c1cccc(-c2ccc3cnc(Nc4ccc(C5CCN(CCO)CC5)cc4)nn23)c1)N1CCCC1 [Example 678, 2-[4-(4-{7-[3-(Pyrrolidine-1-sulfonyl)-phenyl]-pyrrolo[2,1-f][1,2,4]triazin-2-ylamino}-phenyl)-piperidin-1-yl]ethanol]",< 100 nM,100 to 1000 nM,–,–
"N#Cc1cccc(-c2ccc3cnc(Nc4ccc(N5CCOCC5)cc4)nn23)c1 [Example 39, 3-[2-(4-Morpholin-4-yl-phenylamino)-pyrrolo[2,1-f][1,2,4]triazin-7-yl]-benzonitrile]",–,–,< 100 nM,> 10000 nM
"NC(=O)CN1CC(c2ccc(Nc3ncc4ccc(-c5cccc6c5OCC6)n4n3)cc2)C1 [Example 587, 2-(3-{4-[7-(2,3-Dihydro-benzofuran-7-yl)-pyrrolo[2,1-f][1,2,4]triazin-2-ylamino]-phenyl}-azetidin-1-yl)-acetamide]",< 100 nM,< 100 nM,–,–
"CN(C)C1CCC(c2ccc(Nc3ncc4ccc(-c5cccc(S(=O)(=O)NC(C)(C)C)c5)n4n3)cc2)CC1 (centres unmarked) [Example 567, N-tert-Butyl-3-{2-[4-(4-dimethylamino-cyclohexyl)-phenylamino]-pyrrolo[2,1-f][1,2,4]triazin-7-yl}-benzenesulfonamide]",< 100 nM,100 to 1000 nM,–,–
"Cc1cc(-c2ccc(S(C)(=O)=O)cc2)n2nc(Nc3ccc(N4CCN(C)CC4)cc3)ncc12 [Example 108, [7-(4-Methanesulfonyl-phenyl)-5-methyl-pyrrolo[2,1-f][1,2,4]triazin-2-yl]-[4-(4-methyl-piperazin-1-yl)-phenyl]-amine]",–,–,< 100 nM,100 to 1000 nM
"CC(C)(C)NS(=O)(=O)c1cccc(-c2ccc3cnc(Nc4ccc(N5CCOCC5)cc4)nn23)c1 [Example 561, N-tert-Butyl-3-[2-(4-morpholin-4-yl-phenylamino)-pyrrolo[2,1-f][1,2,4]triazin-7-yl]-benzenesulfonamide]",< 100 nM,100 to 1000 nM,–,–
"Clc1cccc(-c2ccc3cnc(Nc4ccc5[nH]ccc5c4)nn23)c1 [Example 176, [7-(3-Chloro-phenyl)-pyrrolo[2,1-f][1,2,4]triazin-2-yl]-(1H-indol-5-yl)-amine]",–,–,< 100 nM,> 10000 nM
"N#CCCc1cccc(-c2ccc3cnc(Nc4ccc(N5CCC(N6CCOCC6)CC5)cc4)nn23)c1 [Example 1150, 3-(3-{2-[4-(4-Morpholin-4-yl-piperidin-1-yl)-phenylamino]-pyrrolo[2,1-f][1,2,4]triazin-7-yl}-phenyl)-propionitrile]",< 100 nM,< 100 nM,–,–
"{6-[7-(3-tert-Butylsulfamoyl-phenyl)-pyrrolo[2,1-f][1,2,4]triazin-2-yl amino]-2-hydroxy-indan-1-yl}-carbamic acid tert-butyl ester [Example 672]",< 100 nM,100 to 1000 nM,–,–
"CS(=O)(=O)N1Cc2cccc(-c3ccc4cnc(Nc5ccc(C6CN(CC(N)=O)C6)cc5)nn34)c2C1 [Example 582, 2-(3-{4-[7-(2-Methanesulfonyl-2,3-dihydro-1H-isoindol-4-yl)-pyrrolo[2,1-f][1,2,4]triazin-2-ylamino]-phenyl}-azetidin-1-yl)-acetamide]",< 100 nM,1000 to 10000 nM,–,–
"c1ccc(-c2ccc3cnc(NCCCN4CCOCC4)nn23)cc1 [Example 29, (3-Morpholin-4-yl-propyl)-(7-phenyl-pyrrolo[2,1-f][1,2,4]triazin-2-yl)-amine]",–,–,1000 to 10000 nM,> 10000 nM
"4-[2-(4-Morpholin-4-yl-phenylamino)-pyrrolo[2,1-f][1,2,4]triazin-7-yl]-piperidine-1-carboxylic acid tert-butyl ester [Example 1128]",< 100 nM,> 10000 nM,–,–
"COc1ccc(-c2ccc3cnc(Nc4cccc(N)c4)nn23)cn1 [Example 898, N-[7-(6-Methoxy-pyridin-3-yl)-pyrrolo[2,1-f][1,2,4]triazin-2-yl]-benzene-1,3-diamine]",< 100 nM,1000 to 10000 nM,–,–
